# Results reported in patent US10041933B2, “Modulators of the interaction of astrin and raptor, and uses thereof in cancer therapy” (ALBERT-LUDWIGS-UNIVERSITÄT FREIBURG, priority 2013, dated 2018).
# Experiments:
# [1] = test system: oral squamous carcinoma cell lines; conditions: cited from earlier work
# [2] = test system: p70-S6K1-pT389 (mTORC1 substrate); test: Immunoblot of mTORC1 substrate p70-S6K1-pT389 after insulin/aa induction; format: cell-based; conditions: astrin knockdown, insulin and aa 10 minutes; Rapamycin 100 nM, PP242 250 nM
# Protocol: Experiments were performed in HeLa α Kyoto cells, and BT474, MDA-MB-231, MDA-MB-453, T-47D, MCF-7 breast cancer cell lines. […] Cultivation of breast cancer cell lines T-47D, BT474, MDA-MB-231 and MDA-MB-453 was done in the following media: RPMI (PAA, Pasching, Austria) supplemented with 100 nM insulin. MCF7 cells were cultivated in RPMI (PAA, Pasching, Austria). Insulin/aa induction was done as described (Sonntag et al., 2012). Prior to stress induction with 500 μM Arsenite or 2 mM H2O2, cells were starved for 16 h in DMEM without Glucose and fetal calf serum (PAA, Pasching, Austria) supplemented with 1.5% L-glutamine.
# Stress granules were analysed after 30 min. stress induction. Apoptosis was analysed after 1-3 hours stress induction. Inhibitors were obtained from Calbiochem, Merck KGaA, Darmstadt, Germany and Sigma Aldrich, St. Louis, USA; dissolved in DMSO, and applied 30 min. prior to all induction regimens, at the following concentrations: Rapamycin (100 nM), PP242 (250 nM), Wortmannin (200 nM), Cycloheximide (2 μg/mL); HeLa cells were synchronized with Nocodazole (400 ng/mL) and subsequent mitotic shake off at G2/M, and released as described (Thein, K. H., Kleylein-Sohn, J., Nigg, E. A., and Gruneberg, U. (2007). Astrin is required for the maintenance of sister chromatid cohesion and centrosome integrity. J Cell Biol 178, 345-354). […]
SMILES,cytotoxicity [1],p70-S6K1-pT389 in astrin deficient cells [2]
CCCCCCCC/C=C\CCCCCCCCCCCCOP(=O)([O-])OCC[N+](C)(C)C [Erufosine],dose-dependent cytotoxicity in all cell lines,–
CC(C)n1nc(-c2cc3cc(O)ccc3[nH]2)c2c(N)ncnc21 [PP242],–,potently inhibited
